{
  "source": "paper PMC5410297",
  "about": "“Sepia ink oligopeptide induces apoptosis and growth inhibition in human lung cancer cells” (Oncotarget, 2017)",
  "key": {"A549 and H1299 cells": {"test_system": "A549 and H1299 cells", "experiment": "Anti-proliferative effect, MTT and CCK-8 assays", "type": "cell-based, human", "details": "A549 and H1299, MTT and CCK-8, 5 μM, n = 3", "experimental": "Cell proliferation and apoptosis are crucial markers of cancer metastasis and invasive properties. To explore whether the stable SIO has much better effect on inhibiting the proliferation of A549 and H1299 cells, MTT and CCK-8 assays (Supplementary Figure 1) were conducted to investigate the anti-proliferative effect in PBS, FITC, stable SIO and linear SIO treated groups. […] It was worth noting that the anti-proliferative effect of SIO was in a time-dependent manner, which was significant at 48 hours (54%), and was peaked at 72 hours (70%).\nFigure 6 The strong cell penetration of stable SIO in A549 or H1299 cells inhibited cell proliferation and induced cell apoptosis FITC-Annexin V and propidium iodide (PI) containing apoptosis assay on A549 or H1299 cells treated with PBS (as blank), FITC (5 μM), linear SIO (5 μM) and stable SIO (5 μM) for 72 hours. (A and D) Apoptotic cells stained with Annexin V/PI were measured by flow cytometry. (B and E) The statistic results of cell apoptosis by flow cytometry. […] Percentage cell viability of the treated cells is calculated relative to that of PBS treated cells (with arbitrarily assigned 100% viability). […]\nCell viability was measured using Cell Counting The plates were processed as described above, and the Kit-8 (CCK-8, Sigma, St. Louis, MO, USA) following the OD450 of the supernatant was measured. […]"}, "A549 cells": {"test_system": "A549 cells", "type": "cell-based, human", "experimental": "To quantitatively evaluate the corresponding cellular uptakes and average fluorescent intensity of linear SIO or stable SIO in human lung cancer cells, A549 cells were treated with PBS (as blank), FITC, stable SIO and linear SIO for 2 hours and then were analyzed by flow cytometry (Figure 5). […] Almost identical results were obtained from another lung cancer cell line H1299 (Figure 5D–5F). Therefore, the results were consistent with the cell fluorescent imaging analysis, which indicated stable SIO was much more appropriate to penetrate into cells.\nFigure 5 Delivery efficiency of stable SIO or linear SIO in A549 or H1299 cells evaluated by flow cytometry (A and D) A549 or H1299 cells were treated with PBS (as blank), FITC (5 μM), linear SIO (5 μM) and stable SIO (5 μM) for 2 hours and the statistical count of cells were gathered by flow cytometry. […] Average fluorescence intensity presents the FITC intensity in the cells. […]\nTo test the delivery efficiency of stable SIO or linear SIO, A549 cells were cultured in the 6-well plates and were treated with PBS (as blank), FITC, stable FITC-SIO and linear FITC-SIO separately for […]. […] Samples were then analyzed by the FACSCalibur flow cytometer (Becton Dickinson). The cellular uptake and average fluorescent intensity were analyzed using Flowjo software."}},
  "data": [
    {"smiles": "O=C1OC2(c3ccc(O)cc3Oc3cc(O)ccc32)c2ccc(N=C=S)cc21", "note": "[FITC]", "values": [
      {"measurement": "inhibition of cell growth (in words)", "setting": "A549 and H1299 cells", "result": "no obvious inhibition"},
      {"measurement": "delivery (permeability) efficiency: ratio of fluorescent cell counts to total cell counts", "setting": "A549 cells", "result": "5.82 ± 0.95", "unit": "%"}
    ]}
  ]
}
